Target: T1, ApoER2 (Homo sapiens, UniProt Q14114)
T1 construct: expressed in transfected cells; host or cells: HEK293 (named only through the non-transfected controls)
T1 sequence (Q14114 33-963) 1: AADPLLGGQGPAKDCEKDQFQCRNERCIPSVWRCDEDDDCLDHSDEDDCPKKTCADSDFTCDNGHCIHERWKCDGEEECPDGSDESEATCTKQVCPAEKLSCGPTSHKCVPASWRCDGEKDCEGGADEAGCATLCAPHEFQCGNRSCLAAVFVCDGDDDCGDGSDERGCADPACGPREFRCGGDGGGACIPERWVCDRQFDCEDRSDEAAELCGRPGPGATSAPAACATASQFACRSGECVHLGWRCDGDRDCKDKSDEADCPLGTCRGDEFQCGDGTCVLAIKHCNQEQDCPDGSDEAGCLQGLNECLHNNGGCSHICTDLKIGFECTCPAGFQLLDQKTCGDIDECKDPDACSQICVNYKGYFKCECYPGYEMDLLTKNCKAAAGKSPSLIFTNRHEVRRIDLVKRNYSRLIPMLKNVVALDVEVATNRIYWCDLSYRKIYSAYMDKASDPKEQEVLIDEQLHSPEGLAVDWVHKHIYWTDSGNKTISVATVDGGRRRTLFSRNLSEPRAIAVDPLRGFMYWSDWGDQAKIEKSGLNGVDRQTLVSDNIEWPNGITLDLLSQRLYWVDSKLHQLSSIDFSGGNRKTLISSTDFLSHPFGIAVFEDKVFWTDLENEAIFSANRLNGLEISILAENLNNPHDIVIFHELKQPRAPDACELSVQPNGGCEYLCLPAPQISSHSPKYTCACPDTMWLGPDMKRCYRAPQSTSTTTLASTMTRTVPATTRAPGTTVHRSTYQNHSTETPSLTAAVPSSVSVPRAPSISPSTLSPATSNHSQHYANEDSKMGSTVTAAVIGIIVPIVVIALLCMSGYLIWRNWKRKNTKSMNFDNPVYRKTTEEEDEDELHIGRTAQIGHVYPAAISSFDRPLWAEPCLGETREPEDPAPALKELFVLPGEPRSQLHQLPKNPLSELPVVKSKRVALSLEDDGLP
T1 sequence (Q14114 33-963) 2: T1 sequence (Q14114 33-963) 1
Experiment: ApoER2 luciferase assay (ApoER2 dimerization/clustering)
Assay type: cell-based
Conditions: for changes in firefly/renilla ratios in the ApoER2 luciferase assay: 10 μM concentration, 60 minutes
Description: FIG. 3 is a schematic of the ApoER2 Clustering Assay. The ApoER2 clustering assay uses the co-transfection of ApoER2 fusion proteins that express either the C- or N-terminal of the luciferase enzyme (A″) Upon Reelin fragment binding, receptor clustering results in active Luciferase and detectable fluorescence (B″). Controls included non-transfected Hek293 cells. Results are average +/−SEM; n=9-15 assays per fragment
Reelin is able to signal through ApoER2 and VLDLR by clustering the receptors. Receptor clustering results in Dab1 activation and is responsible for the modulation of LTP in wild-type acute hippocampal slices. The ApoER2 luciferase assay was used to measure ApoER2 dimerization. This system used an ApoER2-luciferase fusion protein in which ApoER2 was coupled with either the N- or C-terminus portion of luciferase. Upon receptor clustering, the N- and C-terminus portions of luciferase combined to produce a quantifiable fluorescent signal. As a control, all cells were transfected with a Renilla florescent protein that quantified the number of cells in the testing well. The ratio of luciferase florescence to Renilla florescence was used to determine the effect of small molecules. The ApoER2 luciferase assay (FIG. 3) was used to identify small molecules that mimic the actions of Reelin to activate the Reelin signaling system.
The CNS-Set Library was purchased from ChemBridge® and consisted of 35,000 small molecule compounds. The effects of each compound on Reelin signaling were tested in the absence or presence of purified Reeling with the ApoER2 luciferase assay in a 96-well plate. The assay was used to identify agonists of ApoER2 clustering and luciferase activity and was not particularly sensitive for identifying antagonists of receptor clustering.
Relact02 was tested for inducing dimerization of ApoER2 using luciferase as a reporter. Shown in FIG. 1A is a dose response curve assessing luciferase activity. Activity was determined by dimerization of two ApoER2 receptors fused with a luciferase enzyme reporter at the N- or C-terminal region. The control was a compound with structure similar to but different from Relact02. Shown in FIG. 1B is a time course for the luciferase assay using 5 μM of Relact02 or control molecule. Shown in FIG. 1C is a time course using 5 μM Relact02 alone (black bars) or in the presence of the Reelin protein (gray bars).

SMILES	changes in firefly/renilla ratios in the ApoER2 luciferase assay	activation / luciferase activity in the ApoER2 luciferase assay (compound screening, 96-well plate)
CC(C)c1ccc(/C=C/C(=O)Nc2ccc(Cl)cc2Cl)cc1 [(2)]	did not show changes	–
CC(C)c1ccc(/C=C/C(=O)Nc2cccc(Cl)c2Cl)cc1 [(3)]	did not show changes	–
CC(C)c1ccc(/C=C/C(=O)Nc2ccc(Cl)cc2)cc1 [(4)]	did not show changes	–
CC(C)c1ccc(/C=C/C(=O)Nc2ccc(I)cc2Cl)cc1 [(5)]	did not show changes	–
CCOC(=O)c1cc(C(=O)NCc2ccccc2)c(=O)[nH]c1C [Compound E02, ethyl 5-((benzylamino)carbonyl)-2-methyl-6-oxo-1,6-dihydro-3-pyridinecarboxylate, reference compound]	–	no luciferase activity
